Measurements from ChEMBL document CHEMBL3880437, “Modulators of the prostacyclin (PGI2) receptor useful for the treatment of disorders related thereto” (2014).
pIC50: −log10 of the molar value. Blank lines part the entries; values can stand above or below the molecule they belong to.

Legend:
[1] = Solubility of the compound in Gelucire 44/14; type: physicochemical
[2] = Solubility of the compound in Cremophor RH40; type: physicochemical
[3] = Solubility of the compound in Labrasol; type: physicochemical
[4] = Solubility of the compound in Lauroglycol 90; type: physicochemical
[5] = Solubility of the compound in Safflower oil; type: physicochemical
[6] = Solubility of the compound in corn oil; type: physicochemical
[7] = Solubility of the compound in Imwitor 742; type: physicochemical
[8] = Solubility of the compound in Gelucire 50/13; type: physicochemical
[9] = Solubility of the compound in TPGS 1000; type: physicochemical
[10] = Solubility of the compound in PEG6000; type: physicochemical
[11] = Solubility of the compound in PEG400; type: physicochemical
Rattus norvegicus [12] = assay: Cmax in Sprague-Dawley rat assessed as 2-(((1r,4r)-4-(((4-Chlorophenyl)(phenyl)carbamoy-loxy)methyl)cyclohexyl)methoxy)acetic acid level at 1.25 mg/kg, po after 2.67 hrs by LC/MS/MS method; type: ADME, organism-based; set-up: dose 1.25 mg/kg, route oral; conditions: in vivo
[13] = Drug level in bile-duct cannulated male Sprague-Dawley rat treated with sodium 2-(((1r,4r)-4-(((4- Chlorophenyl)(phenyl)carbamoyloxy)methyl)cyclo- hexyl)methoxy)acetate assessed as compound formation at 2 mg/kg, iv; type: ADME, organism-based; conditions: in vivo
[14] = Terminal phase half life in Sprague-Dawley rat assessed as 2-(((1r,4r)-4-(((4-Chlorophenyl)(phenyl)carbamoy-loxy)methyl)cyclohexyl)methoxy)acetic acid level at 1.25 mg/kg, po after 0.1 to 21 hrs by LC/MS/MS method; type: ADME, organism-based; conditions: in vivo
[15] = Drug level in bile-duct cannulated male Sprague-Dawley rat treated with sodium 2-(((1r,4r)-4-(((4- Chlorophenyl)(phenyl)carbamoyloxy)methyl)cyclo-hexyl)methoxy)acetate assessed as compound formation in urine at 2 mg/kg, iv; type: ADME, organism-based; conditions: in vivo
Rattus norvegicus [16] = assay: Tmax in Sprague-Dawley rat assessed as 2-(((1r,4r)-4-(((4-Chlorophenyl)(phenyl)carbamoy-loxy)methyl)cyclohexyl)methoxy)acetic acid level at 10 mg/kg, po by LC/MS/MS method; type: ADME, organism-based; conditions: in vivo
Rattus norvegicus [17] = assay: Tmax in Sprague-Dawley rat assessed as 2-(((1r,4r)-4-(((4-Chlorophenyl)(phenyl)carbamoy-loxy)methyl)cyclohexyl)methoxy)acetic acid level at 1.25 mg/kg, po by LC/MS/MS method; type: ADME, organism-based; conditions: in vivo
Platelet = assay: Inhibition of ADP-induced platelet aggregation in human platelet rich plasma pre-incubated for 1 min before ADP addition and measured 3 mins post ADP addition by aggregometry; type: functional
[18] = Drug level in bile-duct cannulated male Sprague-Dawley rat treated with sodium 2-(((1r,4r)-4-(((4- Chlorophenyl)(phenyl)carbamoyloxy)methyl)cyclo- hexyl)methoxy)acetate assessed as compound formation in bile at 2 mg/kg, iv; type: ADME, organism-based; conditions: in vivo
[19] = Terminal phase half life in Sprague-Dawley rat at 1.25 mg/kg, po after 0.1 to 21 hrs by LC/MS/MS method; type: ADME, organism-based; conditions: in vivo, read-out: beta t1/2 (converted)
Rattus norvegicus [20] = assay: AUC(last) in Sprague-Dawley rat assessed as 2-(((1r,4r)-4-(((4-Chlorophenyl)(phenyl)carbamoy-loxy)methyl)cyclohexyl)methoxy)acetic acid level at 1.25 mg/kg, po after 0.1 to 21 hrs by LC/MS/MS method; type: ADME, organism-based; set-up: dose 1.25 mg/kg, route oral, time 0 - last; conditions: in vivo

solubility [1]: 1610 µg/mL
solubility [2]: 7820 µg/mL
solubility [3]: 12980 µg/mL
solubility [4]: 260 µg/mL
solubility [5]: < 100 µg/mL
solubility [6]: < 100 µg/mL
solubility [7]: 16200 µg/mL
solubility [8]: < 10000 µg/mL
solubility [9]: 2550 µg/mL
solubility [10]: < 10000 µg/mL
solubility [11]: 4850 µg/mL
Compound: O=C([O-])COC[C@H]1CC[C@H](COC(=O)N(c2ccccc2)c2ccc(Cl)cc2)CC1.[Na+]

Cmax (Rattus norvegicus [12]): 214 ng/mL
Drug metabolism [13]: Metabolite_Detected
beta t1/2 [14]: 3.24 h
Drug metabolism [15]: Metabolite_Notdetected
Tmax (Rattus norvegicus [16]): 1.5 h
Tmax (Rattus norvegicus [17]): 2.67 h
pIC50 (Platelet): 5.80 to 7.98
Drug metabolism [18]: Metabolite_Detected
half-life [19]: 3.51 h
AUClast (Rattus norvegicus [20]): 935 ng·h/mL
Compound: O=C(COC[C@H]1CC[C@H](COC(=O)N(c2ccccc2)c2ccc(Cl)cc2)CC1)NCCS(=O)(=O)O
